Experimental data as given in BigSolDB 2.1.

CC(=O)Oc1cc(C)c(OC(C)=O)c2ccccc12
solubility (mole fraction)
Details	283.1 K	288.1 K	293.1 K	298.1 K	303.1 K	308.1 K	313.1 K	318.1 K	323.1 K
in cyclohexanol	0.00261	0.00403	0.00595	0.0082	0.0105	0.0138	0.0182	0.0245	0.033
in ethanol	0.00323	0.00417	0.00532	0.00656	0.00839	0.0108	0.014	0.0184	0.0242
in ethyl acetate	0.0691	0.0795	0.0907	0.103	0.118	0.135	0.156	0.179	0.204
in isobutanol	0.00212	0.0029	0.00384	0.00526	0.00708	0.00958	0.0131	0.018	0.0249
in isopentanol	0.00241	0.00329	0.00422	0.0056	0.00766	0.0102	0.0137	0.0183	0.025
in isopropanol	0.00185	0.0025	0.00334	0.00444	0.00605	0.0081	0.011	0.0152	0.0209
in methanol	0.00461	0.0057	0.0071	0.00877	0.0112	0.0139	0.0173	0.0221	0.032
in methyl acetate	0.0839	0.096	0.109	0.123	0.14	0.159	0.178	0.198	0.22
in n-butanol	0.00257	0.00352	0.00459	0.00595	0.00794	0.0104	0.0139	0.0185	0.0253
in n-butyl acetate	0.0497	0.0573	0.0665	0.077	0.0897	0.105	0.122	0.142	0.165
in n-pentanol	0.00266	0.00374	0.00498	0.00667	0.0092	0.0122	0.0164	0.0219	0.0288
in n-pentyl acetate	0.0429	0.0501	0.0592	0.0681	0.0791	0.093	0.108	0.128	0.15
in n-propanol	0.00265	0.00345	0.00473	0.00629	0.00799	0.0106	0.014	0.0186	0.0252
in n-propyl acetate	0.0592	0.0673	0.0771	0.0895	0.104	0.12	0.138	0.159	0.183
